Laboratory results reported in article PMC6792352, “Limited Chemical Structural Diversity Found to Modulate Thyroid Hormone Receptor in the Tox21 Chemical Library” (Environmental Health Perspectives, 2019).
Structures can show the parent of a compound that is named as a salt.

Assay: in vitro
Conditions: rat, gh3-tre-luc cells, AC50 (uM) modified / 1000

| SMILES | CC50 at 24 h |
| --- | --- |
| C1C[C@@H]2[C@H]3CC[C@H](C3)[C@@H]2C1 [Octahydro-exo-4,7-methano-1H-indene] | > 90 µM |
| CCC=O [Propanal] | > 90 µM |
| O=CNC(N1CCN(C(NC=O)C(Cl)(Cl)Cl)CC1)C(Cl)(Cl)Cl (centres unmarked) [Triforine] | > 90 µM |
| CCCC(C)C [2-Methylpentane] | > 90 µM |
| CC(=O)C(Cl)C(=O)N(C)C (centres unmarked) [2-Chloro-N,N-dimethyl-3-oxobutanamide] | > 90 µM |
| CCCCc1ccc2ccccc2c1S(=O)(=O)O [Butylnaphthalenesulfonic acid sodium salt] | > 90 µM |
| C=C(C)C(=O)OC(C)CO (centres unmarked) [Hydroxypropyl methacrylate] | > 90 µM |
| O=C(OC1CCCCC1)c1ccccc1C(=O)OC1CCCCC1 [Dicyclohexyl phthalate] | 40.2 µM |
| CCOC(=O)OC1=C(c2cc(C)ccc2C)C(=O)N[C@]12CC[C@@H](OC)CC2 [Spirotetramat] | > 90 µM |
| CC(C)C1=CC2=CC[C@@H]3[C@](C)(CCC[C@@]3(C)C(=O)O)[C@H]2CC1 [Sodium abietate] | 74.3 µM |
| CCCCCC1C(=O)CCC1CC(=O)OC (centres unmarked) [Methyl dihydrojasmonate] | > 90 µM |
| CN(C)[C@@H]1C(=O)C(C(=O)NCN2CCCC2)=C(O)[C@@]2(O)C(=O)C3=C(O)c4c(O)cccc4[C@@](C)(O)C3C[C@@H]12 (some centres unmarked) [Rolitetracycline hydrochloride] | > 50 µM |
| C/C(=C\C(=O)OCCCCCCCCC(=O)O)C[C@@H]1OC[C@H](C[C@@H]2O[C@H]2[C@@H](C)[C@H](C)O)[C@@H](O)[C@H]1O [Mupirocin] | > 50 µM |
| CC[C@H]1CN2CCc3cc(OC)c(OC)cc3[C@@H]2C[C@@H]1C[C@H]1NCCc2cc(OC)c(OC)cc21 [Emetine dihydrochloride] | 0.065 µM |
| CO/N=C(\C(=O)N[C@@H]1C(=O)N2C(C(=O)O)=C(CSc3nc(=O)c(=O)[nH]n3C)CS[C@H]12)c1csc(N)n1 [Ceftriaxone disodium trihydrate] | > 50 µM |
| CNC(=O)[C@H](Cc1c[nH]c2ccccc12)NC(=O)[C@@H](CC(=O)NO)CC(C)C [Ilomastat] | 1.28 µM |
| CCCCCCCCCCCCCCCC(=O)O [Hexadecanoic acid] | > 90 µM |
| Cc1ccc(-c2c(Cl)nc(C#N)n2S(=O)(=O)N(C)C)cc1 [Cyazofamid] | 40.3 µM |
| CN1CCN=C(c2ccccc2)c2cc(Cl)ccc21 [Medazepam] | > 50 µM |
| Cc1ccc2c(n1)Oc1ccc(C(C)C(=O)OCC(=O)N(C)C)cc1C2 (centres unmarked) [Mepranoprofen arbamel] | > 50 µM |
| CC1C2CC(CC2C2CCCC(O)C2)C1(C)C (centres unmarked) [3-(5,5,6-Trimethylbicyclo[2.2.1]hept-2-yl)cyclohexanol] | 54.6 µM |
| CC(=O)Oc1ccc(C)cc1 [4-Tolyl acetate] | > 90 µM |
| O=C(O)[C@@H]1[C@H](C(=O)O)[C@H]2CC[C@@H]1O2 [Endothal] | > 90 µM |
| CC(N)[C@]12C[C@H]3C[C@H](C[C@H](C3)C1)C2 (some centres unmarked) [Rimantadine hydrochloride] | > 50 µM |
| C1CCCCCCCCCCC1 [Cyclododecane] | > 20 µM |
| CCCCCCCC/C=C\CCCCCCCC(=O)N(CCO)CCO [(9Z)-N,N-Bis(2-hydroxyethyl)octadec-9-enamide] | 43.9 µM |

| SMILES | CC50 at 24 h |
| --- | --- |
| Cc1cc(C)c(C)c(O)c1 [2,3,5-Trimethylphenol] | > 90 µM |
| Cn1sccc1=O [2-Methyl-4-isothiazolin-3-one hydrochloride] | 30.8 µM |
| COCCCC/C(=N\OCCN)c1ccc(C(F)(F)F)cc1 [Fluvoxamine] | 15 µM |
| CCNc1nc(N)nc(Cl)n1 [Deisopropylatrazine] | > 90 µM |
| O=C(Nc1ccccc1)c1cc(Cl)ccc1O [5-Chlorosalicylanilide] | 7.85 µM |
| CN1CCN(C2=Nc3ccccc3Sc3ccc(Cl)cc32)CC1 [Clothiapine] | 15.2 µM |
| CC(/C=C1\SC(=S)N(CC(=O)O)C1=O)=C\c1ccccc1 [Epalrestat] | 42.6 µM |
| CCN(CC)C1CCCCC1 [N,N-Diethylcyclohexylamine] | > 90 µM |
| CN(C)C(=O)COC(=O)Cc1ccc(OC(=O)c2ccc(NC(=N)N)cc2)cc1 [Camostat mesylate] | > 50 µM |
| OCCNCc1ccccc1 [N-Benzylethanolamine] | > 90 µM |
| CCCCCCCCCC[N+](C)(C)[O-] [N,N-Dimethyldecylamine oxide] | > 90 µM |
| CCN(CC)CC#CCOC(=O)C(O)(c1ccccc1)C1CCCCC1 (centres unmarked) [Oxybutynin chloride] | 15.3 µM |
| CCN(CCC#N)c1ccccc1 [3-[Ethyl(phenyl)amino]propanenitrile] | > 90 µM |
| [O-][n+]1ccc(Cl)cc1 [4-Chloropyridine 1-oxide] | > 100 µM |
| C=C(C)C(=O)OCCOCCOCCOC(=O)C(=C)C [Triethylene glycol dimethacrylate] | > 90 µM |
| C/C=C\C/C=C/CCCCCCCCOC(C)=O [(9E,12Z)-9,12-Tetradecadien-1-ol acetate] | > 90 µM |
| Cc1ccc(C=O)cc1C [3,4-Dimethylbenzaldehyde] | > 90 µM |
| CCCCNC(N)=O [N-Butylurea] | > 90 µM |
| COc1ccc2nc(NC(=O)Nc3ccccc3)sc2c1 [Frentizole] | > 50 µM |
| COc1cc(OC)nc(NC(=O)NS(=O)(=O)c2ncccc2C(=O)N(C)C)n1 [Nicosulfuron] | > 90 µM |
| CCc1cc(C(N)=S)ccn1 [Ethionamide] | > 50 µM |
| Cc1nnc(NS(=O)(=O)c2ccc(N)cc2)s1 [Sulfamethizole] | > 50 µM |
| C1=C\CC/C=C/CC/C=C/CC/1 [1,5,9-Cyclododecatriene] | > 90 µM |
| O=C(O)CO [Glycolic acid] | > 90 µM |
| CCCCCCCCOc1ccccc1C(=O)Nc1ccc(C(=O)OCC[N+](C)(CC)CC)cc1 [Otilonium bromide] | 22.8 µM |
| COC(=O)CCCCCCCC(=O)OC [Dimethyl nonanedioate] | > 90 µM |

| SMILES | CC50 at 24 h |
| --- | --- |
| NCCOCCN [2,2'-Oxybis(ethylamine)] | > 90 µM |
| COc1ccc(CCN(C)CCCC(C#N)(c2ccc(OC)c(OC)c2)C(C)C)cc1OC (centres unmarked) [Verapamil hydrochloride] | 24.5 µM |
| CCNC(=O)/C=C/c1cccc(Br)c1 [Cinromide] | > 50 µM |
| CC(C)COC(=O)C(C)C [Isobutyl isobutyrate] | > 90 µM |
| OC[C@H]1O[C@@H](Oc2ccc(O)cc2)[C@H](O)[C@@H](O)[C@@H]1O [Arbutin] | > 90 µM |
| CC1=C2C[C@H]3[C@@H](CC=C4C[C@@H](O)CC[C@@]43C)[C@@H]2CC[C@]12O[C@@H]1C[C@H](C)CN[C@H]1[C@H]2C [Cyclopamine] | 5.73 µM |
| Cc1ccccc1[N+](=O)[O-] [2-Nitrotoluene] | > 90 µM |
| CCOC(=O)COc1ccc2c(c1)C[C@@H](NC[C@H](O)c1cccc(Cl)c1)CC2 [SR58611] | 24.3 µM |
| CCCOc1ccc2nc(NC(=O)OC)[nH]c2c1 [Oxibendazole] | 0.527 µM |
| OC/C(Br)=C(\Br)CO [(2E)-2,3-Dibromo-2-butene-1,4-diol] | > 90 µM |
| CCCCCC(CO)CCC (centres unmarked) [2-Propyl-1-heptanol] | > 90 µM |
| CCOc1ccc(C(C)(C)COCc2cccc(Oc3ccccc3)c2)cc1 [Etofenprox] | > 90 µM |
| Cc1ncc(COP(=O)(O)O)c(C=O)c1O [Pyridoxal phosphate hydrate] | > 50 µM |
| CCCC(=O)OCCc1ccccc1 [2-Phenylethyl butanoate] | > 90 µM |
| CCC(=O)C1CC(C(C)C)CC=C1C (centres unmarked) [1-(5-Isopropyl-2-methyl-cyclohex-2-enyl)-propan-1-one] | > 90 µM |
| NC(=O)OCC(COC(N)=O)c1ccccc1 [Felbamate] | > 90 µM |
| CCc1cc(Cc2cc(CC)cc(C(C)(C)C)c2O)c(O)c(C(C)(C)C)c1 [2,2'-Methylenebis(ethyl-6-tert-butylphenol)] | 7.35 µM |
| COC(=O)c1c(Cl)c(Cl)c(C(=O)OC)c(Cl)c1Cl [Chlorthal-dimethyl] | > 90 µM |
| CCN(CC)Cc1nccn1-c1ccc([N+](=O)[O-])cc1C(=O)c1ccccc1Cl [Nizofenone] | > 50 µM |
| CCCCCCC(=O)CCCCCC/C=C/C[C@@H](O)[C@H](O)[C@@](N)(CO)C(=O)O [Myriocin] | > 50 µM |
| CC1=C(/C=C/C(C)=C/C=C/C(C)=C/C=C/C=C(C)/C=C/C=C(C)/C=C/C2=C(C)CCCC2(C)C)C(C)(C)CCC1 [beta-Carotene] | > 50 µM |
| CN1C2=CC(=O)/C(=N\NC(N)=O)C=C2CC1S(=O)(=O)O (centres unmarked) [Carbazochrome sodium sulfonate] | > 50 µM |
| CCCCOC(=O)C(C)OC(=O)CCC (centres unmarked) [1-Butoxy-1-oxopropan-2-yl butanoate] | > 90 µM |
| CC#N [Acetonitrile] | > 90 µM |

Same assay, conditions: rat, gh3-tre-luc cells, AC50 (uM) modified / 1000, Tox21_110001=Tox21_111026; viability, 1 nM T3 present, 24 h

| SMILES | CC50 at 24 h |
| --- | --- |
| O=C1CCO1 [beta-Propiolactone] | > 50 µM |

Same assay, conditions: rat, gh3-tre-luc cells, AC50 (uM) modified / 1000, Tox21_110001=Tox21_112876; viability, 1 nM T3 present, 24 h

| SMILES | CC50 at 24 h |
| --- | --- |
| CC(C)=CCN1CC[C@]2(C)c3cc(O)ccc3C[C@H]1[C@H]2C [(+)-Pentazocine succinate] | > 90 µM |

Same assay, conditions: rat, gh3-tre-luc cells, AC50 (uM) modified / 1000, Tox21_110001=Tox21_112880; viability, 1 nM T3 present, 24 h

| SMILES | CC50 at 24 h |
| --- | --- |
| COc1ccc2[nH]cc(CCN(C(C)C)C(C)C)c2c1 [5-Methoxy-N,N-diisopropyltryptamine hydrochloride] | > 100 µM |

Same assay, conditions: rat, gh3-tre-luc cells, AC50 (uM) modified / 1000, Tox21_110001=Tox21_200050; viability, 1 nM T3 present, 24 h

| SMILES | CC50 at 24 h |
| --- | --- |
| NC(=O)C(Cl)Cl [2,2-Dichloroacetamide] | > 90 µM |

Same assay, conditions: rat, gh3-tre-luc cells, AC50 (uM) modified / 1000, Tox21_110001=Tox21_200686; viability, 1 nM T3 present, 24 h

| SMILES | CC50 at 24 h |
| --- | --- |
| COc1ccc2c(c1OC)C(=O)O[C@@H]2[C@H]1c2cc3c(cc2CCN1C)OCO3 [Hydrastine] | 6.92 µM |

Same assay, conditions: rat, gh3-tre-luc cells, AC50 (uM) modified / 1000, Tox21_110001=Tox21_202076; viability, 1 nM T3 present, 24 h

| SMILES | CC50 at 24 h |
| --- | --- |
| C=CC#N [Acrylonitrile] | > 100 µM |

Same assay, conditions: rat, gh3-tre-luc cells, AC50 (uM) modified / 1000, Tox21_110001=Tox21_302951; viability, 1 nM T3 present, 24 h

| SMILES | CC50 at 24 h |
| --- | --- |
| C=CC#N [Acrylonitrile] | > 90 µM |
